According to the NIST ThermoML archive (doi:10.1021/acs.jced.8b01097):
± gives the expanded uncertainty stated by the source.

Test: xn = mol fraction of the nth substance listed
Settings: 85 kPa, Liquid; for viscosity: Concentric cylinders viscometry; for mass density: Vibrating tube method

CCC(C)O (centres undefined) [butan-2-ol] + CC(C)O
Settings	mass density [kg/m3]	viscosity [mPa·s]
293.15 K, x1 = 0.0807	787.1 ± 1	2.497 ± 0.15
293.15 K, x1 = 0.1619	789.2 ± 1	2.584 ± 0.16
293.15 K, x1 = 0.2385	791 ± 1	2.674 ± 0.16
293.15 K, x1 = 0.3492	793.6 ± 1	2.814 ± 0.17
293.15 K, x1 = 0.4386	795.7 ± 1	2.932 ± 0.18
293.15 K, x1 = 0.56	798.3 ± 1	3.097 ± 0.19
293.15 K, x1 = 0.6489	800 ± 1	3.221 ± 0.19
293.15 K, x1 = 0.7402	801.8 ± 1	3.352 ± 0.2
293.15 K, x1 = 0.8494	803.7 ± 1	3.511 ± 0.21
293.15 K, x1 = 0.9403	805.3 ± 1	3.648 ± 0.22
293.15 K, x1 = 1	806.2 ± 1	3.743 ± 0.23
298.15 K, x1 = 0.0807	782.9 ± 1	2.146 ± 0.13
298.15 K, x1 = 0.1619	785 ± 1	2.211 ± 0.13
298.15 K, x1 = 0.2385	786.9 ± 1	2.282 ± 0.14
298.15 K, x1 = 0.3492	789.5 ± 1	2.391 ± 0.14
298.15 K, x1 = 0.4386	791.5 ± 1	2.481 ± 0.15
298.15 K, x1 = 0.56	794.1 ± 1	2.607 ± 0.16
298.15 K, x1 = 0.6489	795.9 ± 1	2.702 ± 0.16
298.15 K, x1 = 0.7402	797.6 ± 1	2.801 ± 0.17
298.15 K, x1 = 0.8494	799.6 ± 1	2.923 ± 0.18
298.15 K, x1 = 0.9403	801.1 ± 1	3.028 ± 0.18
298.15 K, x1 = 1	802 ± 1	3.101 ± 0.19
303.15 K, x1 = 0.0807	778.7 ± 1	1.851 ± 0.11
303.15 K, x1 = 0.1619	780.8 ± 1	1.901 ± 0.12
303.15 K, x1 = 0.2385	782.7 ± 1	1.955 ± 0.12
303.15 K, x1 = 0.3492	785.3 ± 1	2.038 ± 0.12
303.15 K, x1 = 0.4386	787.4 ± 1	2.107 ± 0.13
303.15 K, x1 = 0.56	790 ± 1	2.204 ± 0.13
303.15 K, x1 = 0.6489	791.8 ± 1	2.276 ± 0.14
303.15 K, x1 = 0.7402	793.5 ± 1	2.352 ± 0.14
303.15 K, x1 = 0.8494	795.5 ± 1	2.444 ± 0.15
303.15 K, x1 = 0.9403	797 ± 1	2.524 ± 0.15
303.15 K, x1 = 1	797.9 ± 1	2.579 ± 0.16
308.15 K, x1 = 0.0807	774.4 ± 1	1.603 ± 0.097
308.15 K, x1 = 0.1619	776.5 ± 1	1.643 ± 0.099
308.15 K, x1 = 0.2385	778.5 ± 1	1.684 ± 0.1
308.15 K, x1 = 0.3492	781.1 ± 1	1.747 ± 0.11
308.15 K, x1 = 0.4386	783.1 ± 1	1.801 ± 0.11
308.15 K, x1 = 0.56	785.7 ± 1	1.876 ± 0.11
308.15 K, x1 = 0.6489	787.5 ± 1	1.932 ± 0.12
308.15 K, x1 = 0.7402	789.3 ± 1	1.991 ± 0.12
308.15 K, x1 = 0.8494	791.2 ± 1	2.062 ± 0.12
308.15 K, x1 = 0.9403	792.7 ± 1	2.121 ± 0.13
308.15 K, x1 = 1	793.6 ± 1	2.162 ± 0.13
313.15 K, x1 = 0.0807	769.9 ± 1	1.397 ± 0.084
313.15 K, x1 = 0.1619	772.1 ± 1	1.427 ± 0.086
313.15 K, x1 = 0.2385	774 ± 1	1.459 ± 0.088
313.15 K, x1 = 0.3492	776.7 ± 1	1.508 ± 0.091
313.15 K, x1 = 0.4386	778.7 ± 1	1.549 ± 0.093
313.15 K, x1 = 0.56	781.3 ± 1	1.608 ± 0.097
313.15 K, x1 = 0.6489	783.1 ± 1	1.652 ± 0.1
313.15 K, x1 = 0.7402	784.9 ± 1	1.697 ± 0.1
313.15 K, x1 = 0.8494	786.8 ± 1	1.751 ± 0.11
313.15 K, x1 = 0.9403	788.4 ± 1	1.798 ± 0.11
313.15 K, x1 = 1	789.2 ± 1	1.828 ± 0.11
318.15 K, x1 = 0.0807	765.5 ± 1	1.221 ± 0.074
318.15 K, x1 = 0.1619	767.6 ± 1	1.246 ± 0.075
318.15 K, x1 = 0.2385	769.6 ± 1	1.271 ± 0.077
318.15 K, x1 = 0.3492	772.2 ± 1	1.31 ± 0.079
318.15 K, x1 = 0.4386	774.3 ± 1	1.342 ± 0.081
318.15 K, x1 = 0.56	776.9 ± 1	1.388 ± 0.084
318.15 K, x1 = 0.6489	778.7 ± 1	1.422 ± 0.086
318.15 K, x1 = 0.7402	780.4 ± 1	1.457 ± 0.088
318.15 K, x1 = 0.8494	782.4 ± 1	1.5 ± 0.091
318.15 K, x1 = 0.9403	783.9 ± 1	1.536 ± 0.093
318.15 K, x1 = 1	784.7 ± 1	1.559 ± 0.094
323.15 K, x1 = 0.0807	760.9 ± 1	1.072 ± 0.065
323.15 K, x1 = 0.1619	763.1 ± 1	1.093 ± 0.066
323.15 K, x1 = 0.2385	765 ± 1	1.113 ± 0.067
323.15 K, x1 = 0.3492	767.7 ± 1	1.144 ± 0.069
323.15 K, x1 = 0.4386	769.7 ± 1	1.169 ± 0.071
323.15 K, x1 = 0.56	772.4 ± 1	1.205 ± 0.073
323.15 K, x1 = 0.6489	774.2 ± 1	1.231 ± 0.074
323.15 K, x1 = 0.7402	775.9 ± 1	1.258 ± 0.076
323.15 K, x1 = 0.8494	777.9 ± 1	1.291 ± 0.078
323.15 K, x1 = 0.9403	779.4 ± 1	1.318 ± 0.08
323.15 K, x1 = 1	780.2 ± 1	1.318 ± 0.08
